Molecules are shown by their SMILES.

A short description of data set [1]: Crystal form stability by PXRD (Example 3). The note with it: 40° C. and 75% relative humidity. The data set is classed as physicochemical. The method, then: Crystal form stability was assessed for samples of 5-[(Z)-(5-fluoro-2-oxo-1,2-dihydro-3H-indol-3-ylidene)methyl]-N-[(2S)-2-hydroxy-3-morpholin-4-ylpropyl]-2,4-dimethyl-1 H-pyrrole-3-carboxamide maleate salt, polymorph Form 1, polymorph Form 2, and a mixture of polymorph Form 1 and Form 2. In each case, a sample of the substance was placed into a controlled temperature and humidity stability chamber at 40° C. and 75% relative humidity. Samples were taken several times during the duration of the test and analyzed for qualitative changes in the PXRD patterns.

A short description of data set [2]: Hygroscopicity by dynamic moisture sorption gravimetry (DMSG). Format: physicochemical. The note with it: for Water Uptake at 80% RH (wt. %): DMSG, 25° C., 80% relative humidity. The method, then: In one embodiment, the invention provides a non-hygroscopic salt of 5-[(Z)-(5-fluoro-2-oxo-1,2-dihydro-3H-indol-3-ylidene)methyl]-N-[(2S)-2-hydroxy-3-morpholin-4-ylpropyl]-2,4-dimethyl-1H-pyrrole-3-carboxamide. Hygroscopicity is determined by dynamic moisture sorption gravimetry (DMSG) using a controlled atmosphere microbalance at a temperature of 25° C. Samples are analyzed over a relative humidity range of from 0 to 90% in 3% steps. Each step is brought to equilibrium before moving to the next step, with equilibrium assessed as a weight change of less than 0.002 mg (0.02%) for five consecutive points at 1 point per 120 seconds.
Several salts of 5-[(Z)-(5-fluoro-2-oxo-1,2-dihydro-3H-indol-3-ylidene)methyl]-N-[(2S)-2-hydroxy-3-morpholin-4-ylpropyl]-2,4-dimethyl-1H-pyrrole-3-carboxamide were produced and analyzed for hygroscopicity. Hygroscopicity was determined by dynamic moisture sorption gravimetry (DMSG) using a controlled atmosphere microbalance at a temperature of 25° C. Samples were analyzed over a relative humidity range of from 0 to 90% in 3% steps, in a humidity profile of […], where the initial value of 36% reflects the approximate initial equilibrated relative humidity (not specifically measured). Each step was brought to equilibrium before moving to the next step, with equilibrium assessed as a weight change of less than 0.001 mg (0.01%) or 0.002 mg (0.02%) for five consecutive points at 1 point per 120 seconds. The water uptake at 80% relative humidity (RH) was selected for comparison between the salts. The 80% RH values for each salt are shown in Table 5, and the right column of the table identifies the corresponding Figure showing the complete DMSG scan. A range of values given for the water uptake at 80% reflects hysteresis in the 0→90% and 90→0% scans.

Data set [3] in a line: TGA of six-week stability samples. The data set is classed as physicochemical. The method, then:
TGA measurements were performed using a TA Instruments model 2950 Hi-Res analyzer with a Thermal Analyst 5000 controller. Samples were placed onto a tared platinum hanging pan and heated to at least 165° C. at a rate of 10° C./min. Dry nitrogen was used as a purge gas.
To determine the thermal stability and residual solvent content, the same samples were analyzed by DSC and TGA.

Data set [4] is described as follows: Six-week stability study, HPLC chemical and enantiomeric stability, PXRD (Example 4). The data set is classed as physicochemical. The note with it: for Total Impurity (%): closed vial. The method, then: A six-week stability study was carried out on samples of 5-[(Z)-(5-fluoro-2-oxo-1,2-dihydro-3H-indol-3-ylidene)methyl]-N-[(2S)-2-hydroxy-3-morpholin-4-ylpropyl]-2,4-dimethyl-1H-pyrrole-3-carboxamide maleate salt, polymorph Form 1. The compound was exposed for 6 weeks, closed vial, at three stability test conditions: 5° C., 25° C./60% relative humidity and 40° C./75% relative humidity, and analyzed for chemical and enantiomeric stability as described in Example 2, except that the HPLC instrument was an Agilent 1100 series.
The percent recovery was calculated based on the average response factor obtained from a reference standard throughout the HPLC run, and considering the E isomer as the compound and not as an impurity. […] The isomerization is often an artifact of sample preparation and analysis. […] The values shown in the table are averages of several injections.

Another data set has as its system hepatic cytochrome P450. Nature of the data set: Metabolism in preclinical species and in human hepatocytes and microsomes. The data set is classed as in vitro ADME. The conditions noted are these: preclinical species (in vivo and in vitro). How it is done:
The primary site of metabolism is the morpholinyl group. Three metabolites have been identified in vivo following single oral administration (100 mg/kg) to cynomolgus monkeys (FIG. 8). These 3 metabolites, which were detected at <16% relative abundance to parent in monkey plasma, were also the major products observed in human microsomes and hepatocytes. Relative abundance was determined from monkey plasma following a single dose of 5-[(Z)-(5-fluoro-2-oxo-1,2-dihydro-3H-indol-3-ylidene)methyl]-N-[(2S)-2-hydroxy-3-morpholin-4-ylpropyl]-2,4-dimethyl-1H-pyrrole-3-carboxamide (100 mg/kg) and based on (AUC0-12 metabolite/AUC0-12 parent)×100, estimated from the characteristic indole UV absorption at 440 nm. The N,O-dealkylation metabolite has been confirmed via nuclear magnetic resonance (NMR). […] The morpholinyl lactam metabolite is the product of oxygenation-dehydrogenation and has also been confirmed via NMR. The morpholinyl hemi-aminal metabolite is an unstable metabolite identified via an iminium-ion trapping experiment. Relative abundance was determined by UV response at 428 nm.

A short description of data set [5]: Solid-state properties of the free base form. Format: physicochemical.
Data set [6] has as its system solid and hematopoietic cancer xenograft models. The note with it: diverse preclinical solid and hematopoietic cancer xenograft models; cited from earlier work.
Where [7] appears, read: 6-week sample stored at 25° C./60% RH.
The mark [8] stands for this setting: 6-week sample stored at 40° C./75% RH.

As for `Cc1[nH]c(/C=C2\C(=O)Nc3ccc(F)cc32)c(C)c1C(=O)NC[C@H](O)CN1CCOCC1` [Form 2, 5-[(Z)-(5-fluoro-2-oxo-1,2-dihydro-3H-indol-3-ylidene)methyl]-N-[(2S)-2-hydroxy-3-morpholin-4-ylpropyl]-2,4-dimethyl-1H-pyrrole-3-carboxamide], in data set [1] (134 days), the “crystal form changes in the PXRD pattern” value is on record as “no crystal form changes were observed”. In addition, the “Water Uptake at 80% RH (wt. %)” value in data set [2] (listed as Maleate) was determined as 0.8 wt. %.
Take `Cc1[nH]c(/C=C2\C(=O)Nc3ccc(F)cc32)c(C)c1C(=O)NC[C@H](O)CN1CCOCC1` [mixed Form 1/Form 2, 5-[(Z)-(5-fluoro-2-oxo-1,2-dihydro-3H-indol-3-ylidene)methyl]-N-[(2S)-2-hydroxy-3-morpholin-4-ylpropyl]-2,4-dimethyl-1H-pyrrole-3-carboxamide]: in data set [1] (6 weeks), the “crystal form changes in the PXRD pattern” value was “no crystal form changes were observed”.
Consider `Cc1[nH]c(/C=C2\C(=O)Nc3ccc(F)cc32)c(C)c1C(=O)NC[C@H](O)CN1CCOCC1` [Form 1, 5-[(Z)-(5-fluoro-2-oxo-1,2-dihydro-3H-indol-3-ylidene)methyl]-N-[(2S)-2-hydroxy-3-morpholin-4-ylpropyl]-2,4-dimethyl-1H-pyrrole-3-carboxamide], for which the “TGA Wt. Loss (%), 25° C.–125° C.” value in data set [3] (6-week sample stored at 5° C.) amounted to 1.44%; in data set [3] (setting [7]), 1.36%; in data set [3] (setting [8]) it was 1.66%. For the same compound, the “TGA Wt. Loss (%), 25° C.–275° C.” value in data set [3] (6-week sample stored at 5° C.) worked out at 23.15%; in data set [3] (setting [7]), 24.36%; in data set [3] (setting [8]), 20.61%. Moreover, the “TGA significant weight loss at 207° C.” value in data set [3] (6-week samples) is reported as 21-23%. Moreover, the “TGA weight loss between 25–125° C.” value in data set [3] (6-week samples) is listed as “less than 2%”. Further, the “crystalline changes by PXRD compared to a control sample” value in data set [4] (6-week samples maintained at 40° C./75% RH) is “no crystalline changes”. In data set [4] (6-week stability samples, any samples), the chiral transformation entry was “no chiral transformation observed”. The “Total Impurity (%)” value in data set [4] (6 weeks, 5° C. ± 3° C.) turned out to be 1.67%; in data set [4] (6 weeks, 25° C. ± 2° C., 60% RH) it was 1.85%; in data set [4] (6 weeks, 40° C. ± 2° C.C, 76% RH), 1.86%. Moreover, in data set [4] (all three stability conditions), the “assay of the 6-week stability samples” value is recorded as 97.1–98.5%. Also, in data set [4] (samples held at 80° C. for 2 weeks), the “Enantiomeric stability, amount of R isomer” value is “no increase in the amount of R isomer observed”. In addition, the stability result in data set [4] (under all stability conditions investigated, 6 weeks) is recorded as “stable”. For the same compound, in data set [1] (163 days), the “crystal form changes in the PXRD pattern” value is recorded as “no crystal form changes were observed”.
For `Cc1[nH]c(/C=C2\C(=O)Nc3ccc(F)cc32)c(C)c1C(=O)NC[C@H](O)CN1CCOCC1` [Tosylate, 5-[(Z)-(5-fluoro-2-oxo-1,2-dihydro-3H-indol-3-ylidene)methyl]-N-[(2S)-2-hydroxy-3-morpholin-4-ylpropyl]-2,4-dimethyl-1H-pyrrole-3-carboxamide], the “Water Uptake at 80% RH (wt. %)” value in data set [2] stood at 7 wt. %. Besides, in data set [2] (at about 65% relative humidity), the Uptake of water entry was “about 2.5%”.
Take `Cc1[nH]c(/C=C2\C(=O)Nc3ccc(F)cc32)c(C)c1C(=O)NC[C@H](O)CN1CCOCC1` [L-malate, 5-[(Z)-(5-fluoro-2-oxo-1,2-dihydro-3H-indol-3-ylidene)methyl]-N-[(2S)-2-hydroxy-3-morpholin-4-ylpropyl]-2,4-dimethyl-1H-pyrrole-3-carboxamide]: the “Water Uptake at 80% RH (wt. %)” value in data set [2] was 12–13 wt. %.
Turning to `Cc1[nH]c(/C=C2\C(=O)Nc3ccc(F)cc32)c(C)c1C(=O)NC[C@H](O)CN1CCOCC1` [5-[(Z)-(5-fluoro-2-oxo-1,2-dihydro-3H-indol-3-ylidene)methyl]-N-[(2S)-2-hydroxy-3-morpholin-4-ylpropyl]-2,4-dimethyl-1H-pyrrole-3-carboxamide], the metabolism pathway result with hepatic cytochrome P450 is “proceeds primarily through an oxidative pathway mediated by hepatic cytochrome P450”. In data set [5], the “chemical and enantiomeric stability” value was “chemically and enantiomerically stable”; the hygroscopicity result is on record as “relatively non-hygroscopic”. Besides, the anti-tumor activity entry in data set [6] is given as “has anti-tumor activity”.

Source of the values: patent US7247627B2, “Salts and polymorphs of a pyrrole-substituted indolinone compound” (Pharmacia & Upjohn Company, priority 2003, dated 2007).
